Source: patent US6495331B1, “Regulation of cytokine production in a hematopoietic cell” (National Jewish Center for Immunology and Respiratory …, priority 1996, dated 2002)

Columns and labels:
Type in all cases: cell-based, mouse
JNK = JNK activity (GST-c-Jun kinase assay) in OVA-stimulated OVA-IgE-sensitized MC/9 cells
Description: MC/9 cells (5×10^6/ml) were cultured with 500 ng/ml anti-OVA IgE for 2 h. The cells were washed with medium three times and cultured with fresh medium for an additional 2 h. OVA dissolved in PBS or anti-IgE was added for the stimulation, and PBS was used as a control vehicle.
The activity of JNK was measured by monitoring the activity of a Glutathione S-transferase-c-Jun-(1-79) fusion protein. Cells (3×10^6) were lysed in a buffer (20 MM Tris-HCl, pH 7.6, 250 mM NaCl, 3 mM EDTA, 3 mM EGTA, 0.5% NP-40, 2 mM Na3VO4, 1 mM dithiothreitol (DTT), 1 mM phenylmethylsulfonyl fluoride (PMSF), 20 μg/ml aprotinin, 5 μg/ml leupeptin). The lysates were mixed with GST-c-Jun-Sepharose beads and rotated at 4° C. for 3 h. The beads were washed twice in lysis buffer and once in kinase assay buffer (20 mM Hepes, pH 7.5, 20 mM β-glycerophosphate, 10 mM MgCl2, 1 mM DTT, 50 mM Na3VO4, 10 mM p-nitrophenyl phosphate). After the final wash, 40 μl of a kinase assay buffer containing 10 μCi of γ-^32P-ATP (ICN Pharmaceuticals, Irvine, Calif.) were added per sample. […] The bands corresponding to GST-c-Jun were cut out of the gel, and radioactivity was determined by liquid scintillation counting. […]

ERK2 [1] = test: ERK2 in vitro kinase assay (32P incorporation into myelin basic protein) in OVA-stimulated sensitized MC/9 cells
Description: MC/9 cells sensitized with OVA-IgE (1×10^6/ml) were incubated with 0.1% DMSO (control and 0 nM) or 3-30 μM PD 098059 for 1 h and the reaction was stopped by centrifugation at 5 min after the stimulation. The cells were then incubated with 10 μg/ml OVA or PBS (control) for 5 min. Kinase activity of ERK2 was measured as ^32P incorporation into myelin basic protein (MBP).
In vitro kinase assay of ERK2 was carried out as described above with some minor modifications. 3×10^6 cells were lysed by vigorous mixing in 0.4 ml of lysis buffer (20 mM Tris-HCl (pH 8.0), 1% Triton X-100, 10% glycerol, 137 mM NaCl, 1.5 mM MgCl2, 1 mM EGTA, 50 mM NaF, 1 mM Na3VO4, 1 mM PMSF, 5 μg/ml leupeptin, and 10 μg/ml aprotinin). The lysate was incubated with anti-ERK2 antibody (2 μg/ml) for 2 hrs at 4° C. Recombinant protein G sepharose 4B was added to the lysate and incubated for an additional 1 hr at 4° C. The immune complexes were washed three times with lysis buffer, and once with kinase buffer (30 mM Tris-HCl (pH 8.0), 20 mM MgCl2, 2 mM MnCl2). For the in vitro kinase assay, the immune complex suspension was incubated with 9 μg myelin basic protein (MBP) and 10 μCi of [γ-^32P] ATP in kinase buffer in a final volume of 30 μl for 30 min at 30° C. […] The bands corresponding to MBP were cut out of the gel, and radioactivity was determined by liquid scintillation counting.

p38 MAP kinase = p38 MAP kinase immunoprecipitation kinase assay (ATF-2 substrate) in OVA-stimulated sensitized MC/9 cells
Description: MC/9 cells sensitized with OVA-IgE were incubated in the presence of PBS (O min) or 10 μg/ml OVA for 1, 5, 15, 30, or 60 min. To immunoprecipitate p38 kinase, 3×10^6 cells were lysed by vigorous mixing in 0.4 ml of extraction buffer (1% Triton X-100, 10 mM Tris-HCl (pH 7.4), 5 mM EDTA, 50 mM NaCl, 50 mM […], 0.1% bovine serum albumin (BSA), 20 μg/ml aprotinin, 1 mM PMSF, and 2 mM Na3VO4). The lysate was incubated with the rabbit anti-serum raised against the COOH-terminal peptide sequence of p38 (1:400 dilution) for 2 h at 4° C. Recombinant protein G sepharose 4 B was added to the lysate and incubated for an additional 1 h at 4° C. The immunoprecipitates were washed once with extraction buffer, twice with PAN buffer (10 mM piperazine-N, N′-bis (2-ethanesulfonic acid) (PIPES, pH 7.0), 100 mM NaCl, 20 μg/ml aprotinin). […] The kinase activity was quantified with a PhosphorImager (Molecular Dynamics, Sunnyvale, Calif.).
MC/9 cells sensitized with OVA-IgE (3×10^6) were preincubated with either 1-1000 nM wortmannin or a control (0.01% DMSO) for 15 min and stimulated for 5 min by addition of 10 μg/ml OVA. […] The data are expressed as the percentage of p38 activity detected in the presence of 10 μg/ml OVA and 0.01% DMSO (*, p<0.05).

TNF-α production = TNF-α production by OVA-stimulated sensitized MC/9 cells, ELISA; conditions: then 10 μg/ml OVA 3 h
Description: An ELISA for TNF-α production was performed as follows. Purified rat anti-mouse TNF-α monoclonal antibody was diluted to 2 μg/ml in coating solution (0.1 M NaHCO3, pH 8.2) and 50 μg was added to wells of an ELISA plate (Dynatech Laboratories). […] After washing twice, standards (16 pg/ml −4 ng/ml recombinant mouse TNF-α) and samples were added at 100 μl per well and incubated overnight at 4° C. After washing four times, biotinylated rabbit anti-mouse TNF-α polyclonal antibody (1 μg/ml) was added to wells and incubated at room temperature for 45 min and wells were washed six times. […] ABTS (2,2′-Azino-bis(3-ethylbenzthiazoline-6-sulfonic acid) substrate (30 mg/ml 0.1 M citric acid, pH 4.35) containing 0.03% H2O2 was added at 100 μl per well and color reaction was allowed to develop at room temperature for 30 min. A plate was read at OD 410 nm and analyzed by Mycroplate Manager (Bio Rad, Hercules, Calif.).
MC/9 cells (1×10^6/ml) were incubated with 500 ng/ml mouse monoclonal IgE specific for OVA (OVA-IgE) for 2 h. […] After the incubation, the cell supernatant was harvested and TNF-α production was measured by ELISA.
The effect of wortmannin on TNF-α production in MC/9 cells was also examined. […] TNF-α in the medium was measured by ELISA.
MC/9 cells sensitized with OVA-IgE (1×10^6/ml) were incubated with 0.1% DMSO or 30 μM PD 098059 for 1 h. […] TNF-α in the medium was measured by ELISA.

human TNF-α promoter = test: TNF-α promoter luciferase reporter pTNF(-1311)Luc in MC/9 cells stimulated by FcεRI aggregation
Description: The pXP1 plasmid containing full length of the human TNF-α promoter just upstream of the luciferase gene, designated pTNF(-1311)Luc, was provided by Dr. James S. Economou (Division of Surgical Oncology, UCLA School of Medicine, Los Angels, Calif.). pTNF(-1311)Luc was transfected into MC/9 by the DEAE-dextran method. 2×10^6 cells were washed once with 1×TBS (25 mM Tris, 137 mM NaCl, 5 mM KCl, 0.5 mM Na2HPO4, 0.49 MM MgCl2, 0.68 mM CaCl21 pH 7.5). Cells were suspended with 0.4 ml of 500 μg DEAE-dextran/4 μgDNA mixture and incubated at room temperature for 30 min. After washed with 1×TBS, cells were suspended with 10 ml of culture medium and plated on culture dish. […]
Luciferase activity was measured to measure TNF-α promoter activity. […] 30 μl of the lysate was mixed with the same volume of Luciferase Assay Substrate containing beetle luciferin as a substrate (Promega, Madison Wis.), and chemiluminescence was measured for 30 sec as relative light units by a luminometer (Monolight 2010, Analytical Luminescence Laboratory, San Diego, Calif.).
MC/9 cells transiently transfected by pTNF(-1311)Luc were passively sensitized with OVA-IgE, and incubated for an additional 15 h with 10 μg/ml OVA or PBS in the presence of 0.01% DMSO or 100 nM wortmannin. […] Luciferase activity in cell lysates was measured as relative light units (RLU) and standardized by control RLU (mean±S.D., N=4, p<0.01). […]

ERK2 [2] = test: ERK2 phosphorylation by anti-ERK2 immunoblot in MC/9 cells; conditions: PD 098059, MC/9 cells
Description: After different treatments, 1×10^6 cells were lysed in buffer (150 mM NaCl, 1% Nonidet P-40, 0.5% deoxycholic acid sodium salt, 0.1% SDS, 50 mM Tris (pH 7.6), 10 μg/ml aprotinin, […] leupeptin, 1 mM phenylmethylsulfonyl fluoride). Samples were electrophoresed on SDS-10% polyacrylamide gels and proteins were transferred to nitrocellulose membranes. Membranes were incubated overnight in blocking buffer containing 1% BSA at 4° C. The monoclonal anti-ERK2 antibody (200 μg/69 μl, Upstate Biotechnology) was added to the blocking buffer (1:1000), and blots were incubated for an additional 1 h at room temperature. The blots were washed in TBST (25 mM Tris (pH 8.0), 125 mM NaCl, 0.025% Tween 20), and specific reactive proteins were detected by an enhanced chemiluminescence method, employing a sheep anti-mouse Ig antibody linked to horseradish peroxidase (Amersham Corp.).
1×10^6 cells were lysed in buffer (150 mM NaCl, 1% NP40, 0.5% deoxycholic acid sodium salt, 0.1% SDS, 50 mM Tris (pH 7.6), 10 μg/ml aprotinin, […] leupeptin, 1 mM PMSF). […] The blots were washed in TBST (25 mM Tris, pH 8.0, […] NaCl, 0.025% Tween 20) and specific reactive proteins were detected by an enhanced chemiluminescence method, employing a sheep anti-mouse Ig antibody linked to horseradish peroxidase (Amersham, Arlington Heights, Ill.).

SMILES | effect on JNK activation (JNK; PD 098059, data not shown) | decrease in OVA-induced ERK2 activity (ERK2 [1]; 30 μM PD 098059, 1 h, then 10 μg/ml OVA 5 min) | effect on ERK2 activities (ERK2 [1]; 10-30 μM PD 098059, MC/9 cells) | effect on p38 activation (p38 MAP kinase; PD 098059, data not shown) | effect on TNF-α production (TNF-α production; 30 μM PD 098059, 1 h) | effect on OVA-induced luciferase activity (TNF-α promoter) (human TNF-α promoter; 30 μM PD 098059, 10 μg/ml OVA 15 h) | effect on ERK2 phosphorylation induced by aggregation of FcεRI (ERK2 [2]) | JNK kinase activity, percentage of that observed in the absence of treatment (JNK; 100 nM wortmannin, 15 min preincubation, 10 μg/ml OVA 10 min, MC/9 cells) | decrease in p38 kinase activities (p38 MAP kinase; 100 nM-1 μM wortmannin, 15 min, then 10 μg/ml OVA 5 min) | decrease in TNF-α production (TNF-α production; 100 nM wortmannin, 15 min) | decrease in OVA-induced luciferase activity (TNF-α promoter) (human TNF-α promoter; 100 nM wortmannin, 10 μg/ml OVA 15 h)
COc1cccc(-c2cc(=O)c3ccccc3o2)c1N [PD 098059] | did not inhibit | 65% | significantly inhibited | did not inhibit | did not affect TNF-α production | enhanced OVA-induced luciferase activity | strongly inhibited |  |  |  | 
COC[C@H]1OC(=O)c2coc3c2[C@@]1(C)C1=C(C3=O)[C@@H]2CCC(=O)[C@@]2(C)C[C@H]1OC(C)=O [wortmannin] |  |  |  |  |  |  |  | 8% | 50-60% | 77% | 40%
